Test systems include A549; DLD-1; EKVX; HCT-15; MOLT-4; NCI-H226; NCI-H23; NCI-H460; OVCAR-8; SF-539; SK-MEL-28; SN12C; SNB-19; SNB-75; SR; SW-620; UACC-62; CAKI-1; DU-145; MDA-MB-435.
Holding throughout (assay): NCI-60 cell line screen, 48 h

These results are taken from ChEMBL document CHEMBL1201862, “PubChem BioAssay data set” (2004).

Structures can show the parent of a compound that is named as a salt.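 Growth conditions: 96-well plates. Treatment: test compound, 48 hours, 5 concentrations. Analysis: linear interpolation between bracketing concentrations; unreached endpoints set to highest concentration. The concentration for 50% growth inhibition is given as GI50.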 Active and inactive are the calls of the source. No stated cut-off is given here; in the data, active = GI50 up to about 1.1 µM and inactive = higher. A value given as a limit tells only on which side of the number the result lay.

`Cc1nc2c(n1CCO)C(=O)c1ccccc1C2=O`: the GI50 was 29.4 µM (inactive) with A549; 38.2 µM (inactive) in the assay on DLD-1; 55 µM (inactive) with EKVX; 31.5 µM in the assay with HCT-15; 28.9 µM (inactive) with MOLT-4; > 100 µM (inactive) in the assay with NCI-H226. Also, the GI50 in the assay on NCI-H23 is 15 µM (inactive); with NCI-H460, 27.3 µM (inactive); in the assay on OVCAR-8, 30.3 µM (inactive); in the assay on SF-539 it was 29.9 µM (inactive); in the assay on SK-MEL-28, 93.3 µM (inactive); in the assay on SN12C, 31.4 µM (inactive). In addition, the GI50 in the assay on SNB-19 is 43 µM (inactive); in the assay with SNB-75 it was 82.2 µM (inactive); in the assay with SR, 26.4 µM (inactive); with SW-620, 32.8 µM (inactive); in the assay on UACC-62 it was 16.5 µM (inactive).

For the molecule `CC1CC2(CCC1OCc1ccccc1)OCCO2` (stereo unspecified), the GI50 with A549 is > 100 µM (inactive); in the assay on CAKI-1 it was > 100 µM (inactive); in the assay with DLD-1, > 100 µM (inactive); in the assay with EKVX, > 100 µM (inactive); in the assay on HCT-15, > 100 µM; in the assay with MOLT-4 it was > 100 µM (inactive). Further, the GI50 with NCI-H23, in the assay on NCI-H460, in the assay with OVCAR-8, in the assay with SF-539, in the assay with SN12C and in the assay with SNB-19 was > 100 µM (inactive) in each case. The GI50 in the assay with SW-620 and in the assay on UACC-62 was > 100 µM (inactive) each time.

Consider `CNC(=O)NCCCCC(NC(C)=O)C(=O)NCc1ccccc1` (stereo unspecified), for which the GI50 with A549 was > 100 µM (inactive); in the assay on CAKI-1 it was > 100 µM (inactive); with DLD-1, > 100 µM (inactive); in the assay with EKVX, > 100 µM (inactive); in the assay with HCT-15 it was > 100 µM; with MOLT-4 it was > 100 µM (inactive). The GI50 in the assay with NCI-H226, with NCI-H23, in the assay with NCI-H460, in the assay on OVCAR-8, with SF-539 and in the assay with SK-MEL-28 was > 100 µM (inactive) in each case. For the same molecule, the GI50 was > 100 µM (inactive) with SN12C; > 100 µM (inactive) with SNB-19; 47.1 µM (inactive) in the assay with SNB-75; > 100 µM (inactive) in the assay on SW-620; > 100 µM (inactive) with UACC-62.

Take `COc1cc2c(cc1OC)C(C(CO)CO)N(CC(O)CCl)CC2` (stereo unspecified): the GI50 is > 100 µM (inactive) in the assay on A549; > 100 µM (inactive) in the assay on CAKI-1; > 100 µM (inactive) in the assay on DLD-1; > 100 µM (inactive) with EKVX; > 100 µM in the assay with HCT-15; > 100 µM (inactive) in the assay on MOLT-4. In addition, the GI50 with NCI-H226, in the assay with NCI-H23, with NCI-H460, in the assay with OVCAR-8, in the assay on SF-539 and with SK-MEL-28 was > 100 µM (inactive) in each case. The GI50 with SNB-19, with SNB-75, with SW-620 and in the assay with UACC-62 was > 100 µM (inactive) throughout.

Turning to `CC(=O)CC(=O)OC1CC(C)CCC1C(C)C` (stereo unspecified), the GI50 in the assay on A549 is 35.3 µM (inactive); with CAKI-1, > 100 µM (inactive); in the assay on DLD-1, 24.7 µM (inactive); in the assay on EKVX it was > 100 µM (inactive); with HCT-15 it was 38.7 µM; in the assay with MOLT-4, 17.3 µM (inactive). In addition, the GI50 in the assay with NCI-H23 is 96.8 µM (inactive); in the assay on NCI-H460, 53.3 µM (inactive); in the assay on OVCAR-8, 72.8 µM (inactive); in the assay on SF-539, 36.8 µM (inactive); in the assay on SK-MEL-28, 63.4 µM (inactive); in the assay on SN12C, > 100 µM (inactive). Further, the GI50 is 78.5 µM (inactive) in the assay with SNB-19, 73.3 µM (inactive) in the assay on SNB-75, 43.1 µM (inactive) in the assay on SW-620 and 69.2 µM (inactive) with UACC-62.

For the molecule `C[n+]1cc(C(O)c2ccc3c(c2)OCO3)c2ccccc2c1` (stereo unspecified), the GI50 is 33.3 µM (inactive) in the assay on A549; 13.9 µM (inactive) in the assay with CAKI-1; 31.8 µM (inactive) with DLD-1; 27 µM (inactive) in the assay on EKVX; 33.5 µM with HCT-15; 17.9 µM (inactive) with MOLT-4. The GI50 is 20.6 µM (inactive) in the assay on NCI-H226; 40.3 µM (inactive) in the assay on NCI-H460; 33.3 µM (inactive) in the assay with OVCAR-8; 30.2 µM (inactive) in the assay on SF-539; 40.6 µM (inactive) in the assay with SN12C; 44.3 µM (inactive) with SNB-19. Moreover, the GI50 with SNB-75 was 41.1 µM (inactive); with SW-620 it was 44.2 µM (inactive); in the assay with UACC-62, 22.9 µM (inactive).

On to `COc1ccc(C(C#N)NNC(=O)c2ccccc2O)cc1OC` (stereo unspecified), for which the GI50 in the assay on A549 was 0.377 µM (active); in the assay with CAKI-1, 0.394 µM (active); with DLD-1 it was 0.9 µM (active); in the assay with HCT-15 it was 0.893 µM; with MOLT-4, 3.04 µM (inactive); in the assay with NCI-H226, 1.96 µM (inactive). For the same molecule, the GI50 with NCI-H23 was 0.746 µM (active); in the assay with NCI-H460, 0.478 µM (active); with OVCAR-8, 1.46 µM (inactive); in the assay on SF-539, 0.705 µM (active); in the assay on SK-MEL-28 it was 28.6 µM (inactive); in the assay with SN12C it was 0.767 µM (active). In addition, the GI50 with SNB-75 was 0.331 µM (active); in the assay with SR, 0.463 µM (active); in the assay with SW-620, 4.56 µM (inactive); with UACC-62 it was 0.31 µM (active).

For the molecule `CCOC(=O)C1=C(C)CC2C(=O)OC(=O)C2C1(C)C` (stereo unspecified), the GI50 is > 100 µM (inactive) in the assay with A549; > 100 µM (inactive) in the assay on DLD-1; > 100 µM (inactive) with EKVX; > 100 µM with HCT-15; > 100 µM (inactive) with MOLT-4; > 100 µM (inactive) in the assay on NCI-H226. In addition, the GI50 in the assay with NCI-H23, in the assay with NCI-H460, in the assay on OVCAR-8, in the assay with SF-539, with SK-MEL-28 and in the assay with SN12C was > 100 µM (inactive) each time. Moreover, the GI50 in the assay with SNB-19, in the assay with SR and in the assay on SW-620 was > 100 µM (inactive) throughout.

`CC(NC(C)(C)C)C(=O)c1cccc(Cl)c1` (stereo unspecified) [BUPROPION HYDROCHLORIDE]: the GI50 in the assay with A549, with CAKI-1, in the assay on DLD-1, with EKVX, with MOLT-4 and in the assay with NCI-H23 was > 100 µM (inactive) in each case. In addition, the GI50 in the assay on NCI-H460, with OVCAR-8, with SF-539, in the assay on SK-MEL-28, with SN12C and with SNB-75 was > 100 µM (inactive) throughout. Besides, the GI50 with SW-620 and in the assay with UACC-62 was > 100 µM (inactive) in each case.

Turning to `Nc1ccc(C(=O)CC2(O)C(=O)Nc3ccccc32)cc1` (stereo unspecified), the GI50 is > 100 µM (inactive) in the assay on A549; > 100 µM (inactive) with CAKI-1; > 100 µM (inactive) in the assay on DLD-1; > 100 µM (inactive) in the assay with EKVX; > 100 µM in the assay with HCT-15; > 100 µM (inactive) in the assay on MOLT-4. For the same molecule, the GI50 with NCI-H226, in the assay with NCI-H23, with NCI-H460, with OVCAR-8, in the assay with SF-539 and with SK-MEL-28 was > 100 µM (inactive) each time. In addition, the GI50 in the assay on SN12C was > 100 µM (inactive); with SNB-19, > 100 µM (inactive); in the assay on SNB-75 it was 92.9 µM (inactive); in the assay with SW-620 it was > 100 µM (inactive); in the assay with UACC-62, > 100 µM (inactive).

On to `CSc1nc(Cl)c(Br)c(Sc2nc(N)nc3nc[nH]c23)n1`, for which the GI50 in the assay with A549 was 19.5 µM (inactive); with CAKI-1, 3.42 µM (inactive); with DLD-1, 11.1 µM (inactive); in the assay on HCT-15, 5.66 µM; in the assay with MOLT-4, 4.2 µM (inactive); in the assay on NCI-H226, 10.5 µM (inactive). Also, the GI50 was 10.4 µM (inactive) in the assay with NCI-H23; 5.07 µM (inactive) in the assay with NCI-H460; 11 µM (inactive) with OVCAR-8; 2.81 µM (inactive) in the assay with SF-539; 11 µM (inactive) in the assay on SK-MEL-28; 16.6 µM (inactive) in the assay with SNB-19. The GI50 in the assay with SNB-75 was 3.03 µM (inactive); with SR, 3.48 µM (inactive); in the assay on SW-620, 7.43 µM (inactive); in the assay with UACC-62 it was 3.52 µM (inactive).

Turning to `CC1(C)[N+]([O-])=[N+]([O-])C1(C)O` (stereo unspecified), the GI50 in the assay on A549 was > 100 µM (inactive); in the assay with CAKI-1, > 100 µM (inactive); in the assay on DU-145, > 100 µM (inactive); with EKVX, > 100 µM (inactive); in the assay with HCT-15 it was > 100 µM; in the assay on MDA-MB-435, > 100 µM (inactive). The GI50 in the assay on MOLT-4, with NCI-H226, with NCI-H23, with NCI-H460, with OVCAR-8 and with SF-539 was > 100 µM (inactive) throughout. Besides, the GI50 in the assay on SK-MEL-28, in the assay with SN12C, in the assay on SNB-19, with SNB-75, in the assay on SR and in the assay on SW-620 was > 100 µM (inactive) each time. The GI50 in the assay on UACC-62 was > 100 µM (inactive).

Take `CCOC(=O)N1CCN(P(=O)(Nc2ccc3[nH]c(NC(=O)OC)nc3c2)Oc2ccccc2)CC1` (stereo unspecified): the GI50 with A549 was > 100 µM (inactive); in the assay on CAKI-1, > 100 µM (inactive); with DLD-1 it was > 100 µM (inactive); with HCT-15, > 100 µM; in the assay with MOLT-4, > 100 µM (inactive); in the assay with NCI-H226, > 100 µM (inactive). In addition, the GI50 was > 100 µM (inactive) in the assay with NCI-H23; > 100 µM (inactive) in the assay with NCI-H460; > 100 µM (inactive) in the assay with OVCAR-8; > 100 µM (inactive) with SK-MEL-28; > 100 µM (inactive) in the assay on SN12C; 77.6 µM (inactive) with SNB-75. The results for the GI50 in the assay on SW-620 and in the assay on UACC-62 were > 100 µM (inactive) and 51.1 µM (inactive), respectively.
